Like-named read-outs stand apart in the source and are kept apart here. Blank lines part the entries; values can stand above or below the molecule they belong to.
Key:
Assay in all cases: biochemical
AKT1 = AKT1 (Homo sapiens, UniProt P31749)
BIKE = BIKE (Homo sapiens, UniProt Q9NSY1)
BMPR1A = BMPR1A (Homo sapiens, UniProt P36894)
BRSK1 = BRSK1 (Homo sapiens, UniProt Q8TDC3)
CAMK2A = CAMK2A (Homo sapiens, UniProt Q9UQM7)
CAMK2D = CAMK2D (Homo sapiens, UniProt Q13557)
CDK7 = CDK7 (Homo sapiens, UniProt P50613)
CDK8 = CDK8 (Homo sapiens, UniProt P49336)
CDK9 = CDK9 (Homo sapiens, UniProt P50750)
CDKL3 = CDKL3 (Homo sapiens, UniProt Q8IVW4)
CTK = CTK (Homo sapiens, UniProt P42679)
DCAMKL3 = DCAMKL3 (Homo sapiens, UniProt Q9C098)
DDR1 = DDR1 (Homo sapiens, UniProt Q08345)
EGFR(G719C) = EGFR(G719C) (Homo sapiens, UniProt P00533, G719C)
ERN1 = ERN1 (Homo sapiens, UniProt O75460)
FER = FER (Homo sapiens, UniProt P16591)
FGR = FGR (Homo sapiens, UniProt P09769)
FLT3(ITD) = FLT3(ITD) (Homo sapiens, UniProt P36888, ITD)
HIPK3 = HIPK3 (Homo sapiens, UniProt Q9H422)
HUNK = HUNK (Homo sapiens, UniProt P57058)
IGF1R = IGF1R (Homo sapiens, UniProt P08069)
IRAK3 = IRAK3 (Homo sapiens, UniProt Q9Y616)
KIT = KIT (Homo sapiens, UniProt P10721)
MAP3K2 = MAP3K2 (Homo sapiens, UniProt Q9Y2U5)
MAP4K3 = MAP4K3 (Homo sapiens, UniProt Q8IVH8)
MAST1 = MAST1 (Homo sapiens, UniProt Q9Y2H9)
MERTK = MERTK (Homo sapiens, UniProt Q12866)
MKNK2 = MKNK2 (Homo sapiens, UniProt Q9HBH9)
MYLK4 = MYLK4 (Homo sapiens, UniProt Q86YV6)
NUAK1 = NUAK1 (Homo sapiens, UniProt O60285)
[1] = read-out: CPT-1-70-1 (1uM) % control
[2] = read-out: HYJ-2-002-1 (1uM) % control

Chain of CAMK2D (Q13557 whole entry): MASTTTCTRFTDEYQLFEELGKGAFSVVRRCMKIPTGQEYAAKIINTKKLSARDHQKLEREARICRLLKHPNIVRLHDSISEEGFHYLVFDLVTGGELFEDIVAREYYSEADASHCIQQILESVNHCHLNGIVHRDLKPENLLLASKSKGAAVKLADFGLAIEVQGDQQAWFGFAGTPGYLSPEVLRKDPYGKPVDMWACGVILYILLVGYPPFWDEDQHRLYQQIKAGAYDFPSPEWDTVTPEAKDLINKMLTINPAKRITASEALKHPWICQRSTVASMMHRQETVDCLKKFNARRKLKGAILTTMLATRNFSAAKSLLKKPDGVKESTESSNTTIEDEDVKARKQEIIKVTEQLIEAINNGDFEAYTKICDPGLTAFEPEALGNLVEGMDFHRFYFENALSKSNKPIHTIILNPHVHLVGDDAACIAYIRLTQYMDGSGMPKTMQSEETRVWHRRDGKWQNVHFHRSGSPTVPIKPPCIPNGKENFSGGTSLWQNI
Chain of MAP3K2 (Q9Y2U5 whole entry): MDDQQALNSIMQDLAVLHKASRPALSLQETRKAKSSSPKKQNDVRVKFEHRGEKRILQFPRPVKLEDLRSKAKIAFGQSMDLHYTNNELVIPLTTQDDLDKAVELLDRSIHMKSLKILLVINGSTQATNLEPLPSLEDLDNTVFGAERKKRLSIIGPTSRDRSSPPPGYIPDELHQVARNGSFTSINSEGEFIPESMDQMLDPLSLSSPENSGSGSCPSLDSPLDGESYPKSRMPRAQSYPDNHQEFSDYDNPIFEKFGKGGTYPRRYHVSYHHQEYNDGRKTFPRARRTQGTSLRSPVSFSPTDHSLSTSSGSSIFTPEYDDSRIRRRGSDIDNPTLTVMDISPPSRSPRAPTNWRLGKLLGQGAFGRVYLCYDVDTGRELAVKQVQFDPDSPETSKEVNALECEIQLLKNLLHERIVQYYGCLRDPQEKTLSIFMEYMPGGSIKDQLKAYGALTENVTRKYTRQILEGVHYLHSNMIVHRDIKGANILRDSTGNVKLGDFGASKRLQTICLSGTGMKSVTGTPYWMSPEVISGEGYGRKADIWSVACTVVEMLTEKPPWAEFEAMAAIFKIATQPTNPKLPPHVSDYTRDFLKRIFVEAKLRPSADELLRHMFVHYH
Chain of CDK7 (P50613 whole entry): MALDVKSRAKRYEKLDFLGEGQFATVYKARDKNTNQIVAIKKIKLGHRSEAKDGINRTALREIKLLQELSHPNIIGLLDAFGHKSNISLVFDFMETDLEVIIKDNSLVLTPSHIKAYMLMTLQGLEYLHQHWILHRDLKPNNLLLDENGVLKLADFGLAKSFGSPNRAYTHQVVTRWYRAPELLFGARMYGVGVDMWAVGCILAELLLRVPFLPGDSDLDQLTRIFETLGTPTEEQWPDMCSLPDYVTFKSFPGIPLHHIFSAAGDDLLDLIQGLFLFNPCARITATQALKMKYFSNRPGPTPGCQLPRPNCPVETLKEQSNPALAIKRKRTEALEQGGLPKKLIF
Chain of EGFR(G719C) (P00533 whole entry G719C): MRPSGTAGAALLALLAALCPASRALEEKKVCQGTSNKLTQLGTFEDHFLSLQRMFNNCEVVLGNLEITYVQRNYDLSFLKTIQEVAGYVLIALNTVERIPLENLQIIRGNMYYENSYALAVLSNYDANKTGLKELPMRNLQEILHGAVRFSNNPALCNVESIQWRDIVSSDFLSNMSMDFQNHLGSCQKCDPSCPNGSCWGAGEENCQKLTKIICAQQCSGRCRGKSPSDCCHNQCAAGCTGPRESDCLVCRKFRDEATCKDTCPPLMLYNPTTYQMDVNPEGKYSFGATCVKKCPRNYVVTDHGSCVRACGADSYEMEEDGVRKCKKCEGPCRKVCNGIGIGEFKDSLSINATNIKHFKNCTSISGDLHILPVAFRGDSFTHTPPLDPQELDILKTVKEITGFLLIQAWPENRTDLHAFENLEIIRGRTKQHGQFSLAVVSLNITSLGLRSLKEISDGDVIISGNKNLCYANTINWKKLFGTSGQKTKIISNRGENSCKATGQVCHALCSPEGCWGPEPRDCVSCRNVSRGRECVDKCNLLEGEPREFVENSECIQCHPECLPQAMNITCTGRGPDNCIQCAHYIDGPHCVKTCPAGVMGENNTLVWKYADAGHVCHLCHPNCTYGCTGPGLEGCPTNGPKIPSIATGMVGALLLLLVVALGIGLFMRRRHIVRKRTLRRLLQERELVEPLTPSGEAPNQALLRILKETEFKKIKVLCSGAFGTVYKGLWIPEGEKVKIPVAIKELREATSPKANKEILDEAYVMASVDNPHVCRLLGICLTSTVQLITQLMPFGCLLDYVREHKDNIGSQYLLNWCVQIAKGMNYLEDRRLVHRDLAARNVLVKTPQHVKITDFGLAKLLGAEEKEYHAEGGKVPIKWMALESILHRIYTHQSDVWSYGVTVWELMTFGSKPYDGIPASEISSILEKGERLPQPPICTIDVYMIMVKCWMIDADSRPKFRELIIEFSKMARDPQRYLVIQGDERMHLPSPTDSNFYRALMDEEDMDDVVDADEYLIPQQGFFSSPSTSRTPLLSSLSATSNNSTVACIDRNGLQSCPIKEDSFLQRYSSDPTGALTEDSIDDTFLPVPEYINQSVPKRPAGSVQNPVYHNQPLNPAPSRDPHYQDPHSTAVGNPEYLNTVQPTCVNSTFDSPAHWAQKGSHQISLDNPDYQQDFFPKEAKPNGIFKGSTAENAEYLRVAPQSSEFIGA
Chain of DCAMKL3 (Q9C098 whole entry): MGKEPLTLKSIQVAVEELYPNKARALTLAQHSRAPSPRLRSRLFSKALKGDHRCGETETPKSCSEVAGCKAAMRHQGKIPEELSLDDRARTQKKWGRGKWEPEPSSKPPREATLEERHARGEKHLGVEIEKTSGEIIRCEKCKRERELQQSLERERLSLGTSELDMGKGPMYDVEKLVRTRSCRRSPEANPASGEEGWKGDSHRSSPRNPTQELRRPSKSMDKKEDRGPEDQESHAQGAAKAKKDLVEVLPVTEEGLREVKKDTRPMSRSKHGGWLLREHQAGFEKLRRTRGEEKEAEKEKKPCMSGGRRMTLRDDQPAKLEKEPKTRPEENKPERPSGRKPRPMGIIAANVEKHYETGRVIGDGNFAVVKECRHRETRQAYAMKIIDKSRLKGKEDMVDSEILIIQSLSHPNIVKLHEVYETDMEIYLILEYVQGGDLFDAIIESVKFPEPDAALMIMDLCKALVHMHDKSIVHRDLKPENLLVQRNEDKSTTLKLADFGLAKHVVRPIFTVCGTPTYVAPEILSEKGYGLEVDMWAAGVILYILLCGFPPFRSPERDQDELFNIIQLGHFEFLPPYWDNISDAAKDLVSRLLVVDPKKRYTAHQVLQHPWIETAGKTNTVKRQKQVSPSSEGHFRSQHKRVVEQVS
Chain of FLT3(ITD) (P36888 564-993, change not shown): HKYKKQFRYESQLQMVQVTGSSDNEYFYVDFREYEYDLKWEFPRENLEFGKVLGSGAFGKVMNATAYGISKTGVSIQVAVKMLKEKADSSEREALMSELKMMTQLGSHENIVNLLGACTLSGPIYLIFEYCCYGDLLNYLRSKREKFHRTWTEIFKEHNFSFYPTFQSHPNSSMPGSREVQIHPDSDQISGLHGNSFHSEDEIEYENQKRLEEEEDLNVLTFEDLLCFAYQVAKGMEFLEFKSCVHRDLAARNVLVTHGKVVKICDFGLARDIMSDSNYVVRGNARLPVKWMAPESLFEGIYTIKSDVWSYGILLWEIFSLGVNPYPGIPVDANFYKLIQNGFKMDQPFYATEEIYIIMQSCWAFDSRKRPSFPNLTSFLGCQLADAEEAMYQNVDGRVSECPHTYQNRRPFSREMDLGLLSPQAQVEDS
Chain of DDR1 (Q08345 whole entry): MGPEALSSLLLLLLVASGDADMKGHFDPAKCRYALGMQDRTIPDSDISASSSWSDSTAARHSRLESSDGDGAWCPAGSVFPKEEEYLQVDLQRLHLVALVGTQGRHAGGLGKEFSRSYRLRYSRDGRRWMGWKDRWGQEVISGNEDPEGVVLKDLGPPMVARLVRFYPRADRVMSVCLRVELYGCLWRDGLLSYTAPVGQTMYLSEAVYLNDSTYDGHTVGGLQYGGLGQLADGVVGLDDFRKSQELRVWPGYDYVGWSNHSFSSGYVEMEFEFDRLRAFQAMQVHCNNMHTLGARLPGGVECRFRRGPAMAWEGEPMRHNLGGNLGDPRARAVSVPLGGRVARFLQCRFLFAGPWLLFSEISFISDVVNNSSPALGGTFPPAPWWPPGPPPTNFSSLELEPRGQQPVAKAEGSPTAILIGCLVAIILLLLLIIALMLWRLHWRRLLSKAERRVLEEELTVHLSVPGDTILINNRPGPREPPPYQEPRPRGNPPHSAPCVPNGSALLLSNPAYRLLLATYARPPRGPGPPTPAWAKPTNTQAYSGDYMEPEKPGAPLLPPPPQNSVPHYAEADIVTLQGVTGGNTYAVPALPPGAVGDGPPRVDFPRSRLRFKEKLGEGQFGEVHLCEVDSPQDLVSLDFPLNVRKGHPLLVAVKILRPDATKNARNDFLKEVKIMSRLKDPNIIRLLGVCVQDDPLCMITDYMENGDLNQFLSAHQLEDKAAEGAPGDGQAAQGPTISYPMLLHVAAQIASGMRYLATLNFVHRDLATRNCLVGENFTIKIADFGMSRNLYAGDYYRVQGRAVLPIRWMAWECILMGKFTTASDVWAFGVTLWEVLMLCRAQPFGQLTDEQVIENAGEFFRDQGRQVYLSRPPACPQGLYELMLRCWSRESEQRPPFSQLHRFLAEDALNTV
Chain of CDK9 (P50750 whole entry): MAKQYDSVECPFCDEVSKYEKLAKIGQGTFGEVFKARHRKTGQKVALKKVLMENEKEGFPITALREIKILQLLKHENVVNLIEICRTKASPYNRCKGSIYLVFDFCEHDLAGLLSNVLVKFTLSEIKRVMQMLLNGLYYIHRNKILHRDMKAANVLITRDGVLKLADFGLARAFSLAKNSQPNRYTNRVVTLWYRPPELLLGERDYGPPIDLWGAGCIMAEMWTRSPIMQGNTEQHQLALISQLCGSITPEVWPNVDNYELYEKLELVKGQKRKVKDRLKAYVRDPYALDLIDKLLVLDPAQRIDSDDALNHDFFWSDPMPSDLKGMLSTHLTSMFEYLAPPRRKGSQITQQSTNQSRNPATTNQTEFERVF

SMILES: CN1CCN(c2ccc(Nc3nc(Oc4ccc(NC(=O)CCl)cc4)c4cc[nH]c4n3)cc2)CC1 [CPT1-70-1]
remaining activity at 1 µM (AKT1; [1]): 100%
remaining activity at 1 µM (BIKE; [1]): 18%
remaining activity at 1 µM (BMPR1A; [1]): 100%
remaining activity at 1 µM (BRSK1; [1]): 100%
remaining activity at 1 µM (CAMK2A; [1]): 95%
remaining activity at 1 µM (CAMK2D; [1]): 100%
remaining activity at 1 µM (CDK7; [1]): 100%
remaining activity at 1 µM (CDK8; [1]): 100%
remaining activity at 1 µM (CDK9; [1]): 90%
remaining activity at 1 µM (CDKL3; [1]): 100%
remaining activity at 1 µM (CTK; [1]): 100%
remaining activity at 1 µM (DCAMKL3; [1]): 56%
remaining activity at 1 µM (DDR1; [1]): 79%
remaining activity at 1 µM (EGFR(G719C); [1]): 8%
remaining activity at 1 µM (ERN1; [1]): 69%
remaining activity at 1 µM (FER; [1]): 45%
remaining activity at 1 µM (FGR; [1]): 4.2%
remaining activity at 1 µM (FLT3(ITD); [1]): 1.6%
remaining activity at 1 µM (HIPK3; [1]): 74%
remaining activity at 1 µM (HUNK; [1]): 78%
remaining activity at 1 µM (IGF1R; [1]): 62%
remaining activity at 1 µM (IRAK3; [1]): 89%
remaining activity at 1 µM (KIT; [1]): 20%
remaining activity at 1 µM (MAP3K2; [1]): 37%
remaining activity at 1 µM (MAP4K3; [1]): 23%
remaining activity at 1 µM (MAST1; [1]): 100%
remaining activity at 1 µM (MERTK; [1]): 70%
remaining activity at 1 µM (MKNK2; [1]): 100%
remaining activity at 1 µM (MYLK4; [1]): 92%
remaining activity at 1 µM (NUAK1; [1]): 9.3%

remaining activity at 1 µM (AKT1; [2]): 100%
remaining activity at 1 µM (BIKE; [2]): 96%
remaining activity at 1 µM (BMPR1A; [2]): 100%
remaining activity at 1 µM (BRSK1; [2]): 97%
remaining activity at 1 µM (CAMK2A; [2]): 100%
remaining activity at 1 µM (CAMK2D; [2]): 100%
remaining activity at 1 µM (CDK7; [2]): 44%
remaining activity at 1 µM (CDK8; [2]): 9.2%
remaining activity at 1 µM (CDK9; [2]): 100%
remaining activity at 1 µM (CDKL3; [2]): 34%
remaining activity at 1 µM (CTK; [2]): 91%
remaining activity at 1 µM (DCAMKL3; [2]): 84%
remaining activity at 1 µM (DDR1; [2]): 0%
remaining activity at 1 µM (EGFR(G719C); [2]): 0.75%
remaining activity at 1 µM (ERN1; [2]): 100%
remaining activity at 1 µM (FER; [2]): 56%
remaining activity at 1 µM (FGR; [2]): 0.75%
remaining activity at 1 µM (FLT3(ITD); [2]): 2.3%
remaining activity at 1 µM (HIPK3; [2]): 55%
remaining activity at 1 µM (HUNK; [2]): 79%
remaining activity at 1 µM (IGF1R; [2]): 100%
remaining activity at 1 µM (IRAK3; [2]): 100%
remaining activity at 1 µM (KIT; [2]): 0%
remaining activity at 1 µM (MAP3K2; [2]): 26%
remaining activity at 1 µM (MAP4K3; [2]): 40%
remaining activity at 1 µM (MAST1; [2]): 99%
remaining activity at 1 µM (MERTK; [2]): 30%
remaining activity at 1 µM (MKNK2; [2]): 7%
remaining activity at 1 µM (MYLK4; [2]): 100%
remaining activity at 1 µM (NUAK1; [2]): 65%
SMILES: CCN1CCN(Cc2ccc(NC(=O)c3ccc(C)c(CCc4cnc5[nH]ccc5c4OC)c3)cc2C(F)(F)F)CC1 [HYJ-2-002-1]

Source: article doi:10.1101/2020.06.11.145995v1 (biorxiv, 2020)
